Experimental data reported in US20220370416A1, “COMPOUNDS AND METHODS FOR TARGETED DEGRADATION OF KRAS” (Arvinas Operations, Inc., priority 2020, published 2022).

Legend:
[1] = molecular target: T1, HiBit-KRAS^G12C (Homo sapiens, UniProt P01116, G12C); assay: HiBit degradation assay in MiaPaCa-2 HiBit-KRas^G12C cells; assay type: cell-based; conditions: 24 hours; for Dmax: MIA PaCa-2, MiaPaCa-2 HiBit-KRas^G12C cells, maximum degradation; for DC50: MiaPaCa-2 HiBit-KRas^G12C cells
Protocol: Reagents. SW1573 (CRL-2170) and MiaPaCa-2 (CRL-1420) cells were purchased from ATCC. Both cell lines are […] for the G12C mutation in KRAS. SW1573 cells were cultured in DMEM+F12+Glutamax (+Sodium Bicarbonate, +sodium pyruvate, Thermofisher scientific, #10565) supplemented with 10% FBS (Thermofisher scientific, #2060357) and 1% Antibiotic-Antimycotic (Thermofisher scientific, #15240096). MiaPaCa-2 cells were cultured in DMEM+Glutamax media (Thermofisher scientific, #10566) supplemented with 10% FBS (Thermofisher scientific, #2060357) and 1% Antibiotic-Antimycotic (Thermofisher scientific, #15240096). For degradation assays, 384 well plates were purchased from Corning (Corning® CellBIND® 384-well Flat Clear Bottom Black Polystyrene Microplates, Low Flange, #3770). Gambogic acid was purchased from Selleckchem (#S2448). Alamar blue was purchased from Thermofisher scientific (A50101) and used according to manufacturer instructions. The Nano-Glo® HiBit Lytic Detection System and Nano-Glo® HiBit Blotting System were purchased from Promega (#N3050 and #N2410) and used according to manufacturer instructions.
To create the MiaPaCa-2 HiBit-KRAS^G12C cell line, CRISPR-Cas9 was used to insert the HiBit tag onto the N-terminus of one or more of the four endogenous KRAS^G12C alleles. After knock-in of the tag, individual clones were isolated by single cell dilution and screened for HiBit insertion by PCR. Clones containing the HiBit tag were sequenced and one was identified that contained the desired HiBit-KRAS^G12C sequence at one allele while the remaining three KRAS^G12C alleles were unaffected. This line was used for all subsequent studies.
Either SW1573 HiBit-KRas^G12C or MiaPaCa-2 HiBit-KRas^G12C cells were plated at 9000 cells/well in a 384 well plate (Corning #3770). Exemplary heterobifunctional molecules and positive controls were diluted in the appropriate cell media and applied to the plated cells resulting in a final concentration titration of 10 μM to 20 nM in either 0.1% or 0.5% dimethyl sulfoxide (DMSO). Gambogic acid was used as a positive control for cytotoxicity and titrated from 10 μM to 78 nM. All assays were performed in triplicate. Cells were treated with compounds for 24 hours at 37° C. in an incubator containing 5% CO2. Following treatment, alamar blue was used to determine if any compounds led to a loss in cell viability after 24 hours. The 10× alamar blue reagent was added to a final concentration of 1× as recommended by the manufacturer and cells were returned to the incubator for 4 hours. Plates were then allowed to equilibrate to room temperature and fluorescence was measured using a Perkin-Elmer EnVision. After completion of the fluorescence read, the liquid from each well was removed and the cells were washed with PBS. The Nano-Glo® HiBiT detection reagent was prepared according to the manufacturer's instructions and added to each well after the PBS wash was removed. Following incubation at room temperature for 45 minutes, the luminescence was read using the ultra-sensitive luminescence aperture on the Envision instrument.
Fluorescence values from the alamar blue treatment were normalized to the DMSO only control for each compound titration. We hypothesized that compounds that led to a ≥50% loss in cell viability of the KRAS-independent SW1573 HiBit-KRas^G12C cells were likely generally cytotoxic and loss of HiBit-KRAS^G12C signal from these compounds may be due to lower cell number and not specific KRAS^G12C degradation. These points were therefore excluded from the data analysis for degradation. […]

[2] = molecular target: T1, HiBit-KRAS^G12C; assay: HiBit degradation assay in SW1573 HiBit-KRas^G12C cells; assay type: cell-based; parameters: expressed in transfected cells; host or cells: SW1573 (clone E6), modified pcDNA3.1 vector, TK promoter; conditions: 24 hours; for Dmax: SW1573, SW1573 HiBit-KRas^G12C; for DC50: SW1573 HiBit-KRas^G12C
In short: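 HiBit-KRAS G12C degradation was measured after a 24 h compound exposure (titrated 10 μM–20 nM) in engineered SW1573 cells. Lytic HiBit luminescence, expressed relative to DMSO controls, yielded DC50 and Dmax from 4-parameter fits. Concentrations causing ≥50% loss in alamar blue viability were omitted as cytotoxic.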

[3] = 0.5% DMSO, read-out: KRas^G12C-HiBiT (MiaPaCa; 0.5% DMSO) DMax
[4] = 0.1% DMSO, read-out: KRas^G12C-HiBit (SW1573; 0.1% DMSO) Dmax**
[5] = 0.5% DMSO, read-out: KRas^G12C-HiBiT (SW1573; 0.5% DMSO) Dmax**
[6] = 0.1% DMSO, read-out: KRas^G12C-HIBit (SW1573; 0.1% DMSO) DC50*
[7] = read-out: KRas^G12C-HiBiT (MiaPaCa; 0.5% DMSO) IC50, 0.5% DMSO
[8] = read-out: KRas^G12C-HiBiT (SW1573; 0.5% DMSO) IC50***, 0.5% DMSO

T1 sequence (P01116 1-186 isoform P01116-2 G12C limits assumed): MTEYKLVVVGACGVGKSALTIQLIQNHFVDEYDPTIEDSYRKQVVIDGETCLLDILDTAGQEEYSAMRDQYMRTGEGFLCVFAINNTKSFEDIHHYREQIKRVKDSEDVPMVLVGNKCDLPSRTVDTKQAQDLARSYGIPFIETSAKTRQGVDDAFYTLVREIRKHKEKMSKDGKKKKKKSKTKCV

Compound	Dmax ([1]; 0.1% DMSO, read-out: KRas^G12C-HiBiT (MiaPaCa; 0.1% DMSO) DMax) [%]	Dmax [1, 3] [%]	Dmax [2, 4] [%]	Dmax [2, 5] [%]	DC50 [2, 6] [nM]	DC50 [1, 7] [nM]	DC50 [2, 8] [nM]	DC50 ([1]; read-out: KRas^G12C-HiBiT (MiaPaCa; 0.1% DMSO) IC50, 0.1% DMSO) [nM]
C=CC(=O)N1CCN(c2nc(O[C@@H](C)CN3CCC(OCCOCC(=O)N[C@H](C(=O)N4C[C@H](O)C[C@H]4C(=O)N[C@@H](C)c4ccc(-c5scnc5C)cc4)C(C)(C)C)CC3)nc3c(F)c(-c4cc(O)cc5ccccc45)c(Cl)cc23)CC1 [Compound 67, (2S,4R)-1-[(2S)-2-{2-[2-({1-[(2S)-2-{[6-chloro-8-fluoro-7-(3-hydroxynaphthalen-1-yl)-4-[4-(prop-2-enoyl)piperazin-1-yl]quinazolin-2-yl]oxy}propyl]piperidin-4-yl}oxy)ethoxy]acetamido}-3,3-dimethylbutanoyl]-4-hydroxy-N-[(1S)-1-[4-(4-methyl-1,3-thiazol-5-yl)phenyl]ethyl]pyrrolidine-2-carboxamide]	35 to 70	35 to 70	35 to 70	35 to 70	100 to 1000	–	–	–
C=C(F)C(=O)N1CCN(c2nc(OCCN3CCC4(CC3)CN(c3cc([C@@H](C(=O)N5C[C@H](O)C[C@H]5C(=O)N[C@@H](C)c5ccc(-c6ccnn6C)cc5)C(C)C)on3)C4)nc3c(F)c(-c4cc(O)cc5ccccc45)c(Cl)cc23)C[C@@H]1CC#N (atropisomer, axis not shown) [Compound 103, (2S,4R)-1-[(2S)-2-(3-{7-[2-({6-chloro-4-[(3S)-3-(cyanomethyl)-4-(2-fluoroprop-2-enoyl)piperazin-1-yl]-8-fluoro-7-(3-hydroxynaphthalen-1-yl)quinazolin-2-yl}oxy)ethyl]-2,7-diazaspiro[3.5]nonan-2-yl}-1,2-oxazol-5-yl)-3-methylbutanoyl]-4-hydroxy-N-[(1S)-1-[4-(1-methyl-1H-pyrazol-5-yl)phenyl]ethyl]pyrrolidine-2-carboxamide]	–	–	–	–	–	> 1000	100 to 1000	–
C=CC(=O)N1CCN(c2nc(N3CCN(C[C@H]4C[C@H](OCC(=O)N[C@H](C(=O)N5C[C@H](O)C[C@H]5C(=O)N[C@@H](C)c5ccc(-c6scnc6C)cc5)C(C)(C)C)C4)CC3)nc3c(F)c(-c4cc(O)cc5ccccc45)c(Cl)cc23)C[C@@H]1CC#N [Compound 114, (2S,4R)-1-[(2S)-3,3-dimethyl-2-{2-[(1r,3r)-3-[(4-{6-chloro-4-[(3S)-3-(cyanomethyl)-4-(prop-2-enoyl)piperazin-1-yl]-8-fluoro-7-(3-hydroxynaphthalen-1-yl)quinazolin-2-yl}piperazin-1-yl)methyl]cyclobutoxy]acetamido}butanoyl]-4-hydroxy-N-[(1S)-1-[4-(4-methyl-1,3-thiazol-5-yl)phenyl]ethyl]pyrrolidine-2-carboxamide]	–	< 35	–	35 to 70	–	100 to 1000	100 to 1000	–
C=CC(=O)N1CCN(c2nc(OCCN3CCC(COc4cc([C@@H](C(=O)N5C[C@@H](O)C[C@H]5C(=O)N[C@@H](C)c5ccc(-c6scnc6C)cc5)C(C)C)on4)CC3)nc3c(F)c(-c4cc(O)cc5ccccc45)c(Cl)cc23)C[C@@H]1CC#N (atropisomer, axis not shown) [Compound 105, (2S,4S)-1-[(2S)-2-[3-({1-[2-({6-chloro-4-[(3S)-3-(cyanomethyl)-4-(prop-2-enoyl)piperazin-1-yl]-8-fluoro-7-(3-hydroxynaphthalen-1-yl)quinazolin-2-yl}oxy)ethyl]piperidin-4-yl}methoxy)-1,2-oxazol-5-yl]-3-methylbutanoyl]-4-hydroxy-N-[(1S)-1-[4-(4-methyl-1,3-thiazol-5-yl)phenyl]ethyl]pyrrolidine-2-carboxamide]	–	< 35	–	–	–	< 100	> 1000	–
C=CC(=O)N1CCN(c2nc(OCCN3CC[C@@H](COCC(=O)N[C@H](C(=O)N4C[C@H](O)C[C@H]4C(=O)N[C@@H](C)c4ccc(-c5scnc5C)cc4)C(C)(C)C)C3)nc3c(F)c(-c4cc(O)cc5ccccc45)c(Cl)cc23)C[C@@H]1CC#N [Compound 140, (2S,4R)-1-[(2S)-2-(2-{[(3R)-1-[2-({6-chloro-4-[(3S)-3-(cyanomethyl)-4-(prop-2-enoyl)piperazin-1-yl]-8-fluoro-7-(3-hydroxynaphthalen-1-yl)quinazolin-2-yl}oxy)ethyl]pyrrolidin-3-yl]methoxy}acetamido)-3,3-dimethylbutanoyl]-4-hydroxy-N-[(1S)-1-[4-(4-methyl-1,3-thiazol-5-yl)phenyl]ethyl]pyrrolidine-2-carboxamide]	–	35 to 70	–	35 to 70	–	> 1000	100 to 1000	–
C=C(F)C(=O)N1CCN(c2nc(OCCN3CCC4(CC3)CN(c3cc([C@@H](C(=O)N5C[C@H](O)C[C@H]5C(=O)N[C@@H](C)c5ccc(-c6scnc6C)cc5)C(C)C)on3)C4)nc3c(F)c(-c4cc(O)cc5ccccc45)c(Cl)cc23)C[C@@H]1CC#N (atropisomer, axis not shown) [Compound 113, (2S,4R)-1-[(2S)-2-(3-{7-[2-({6-chloro-4-[(3S)-3-(cyanomethyl)-4-(2-fluoroprop-2-enoyl)piperazin-1-yl]-8-fluoro-7-(3-hydroxynaphthalen-1-yl)quinazolin-2-yl}oxy)ethyl]-2,7-diazaspiro[3.5]nonan-2-yl}-1,2-oxazol-5-yl)-3-methylbutanoyl]-4-hydroxy-N-[(1S)-1-[4-(4-methyl-1,3-thiazol-5-yl)phenyl]ethyl]pyrrolidine-2-carboxamide]	–	–	–	–	–	> 1000	> 1000	–
C=CC(=O)N1CCN(c2nc(O[C@H](C)CN3CCC(C(=O)N[C@H](C(=O)N4C[C@H](O)C[C@H]4C(=O)N[C@@H](C)c4ccc(-c5scnc5C)cc4)C(C)(C)C)CC3)nc3c(F)c(-c4cc(O)cc5ccccc45)c(Cl)cc23)CC1 [Compound 34, 1-[(2R)-2-{[6-chloro-8-fluoro-7-(3-hydroxynaphthalen-1-yl)-4-[4-(prop-2-enoyl)piperazin-1-yl]quinazolin-2-yl]oxy}propyl]-N-[(2S)-1-[(2S,4R)-4-hydroxy-2-{[(1S)-1-[4-(4-methyl-1,3-thiazol-5-yl)phenyl]ethyl]carbamoyl}pyrrolidin-1-yl]-3,3-dimethyl-1-oxobutan-2-yl]piperidine-4-carboxamide]	–	–	< 35	–	100 to 1000	–	–	> 1000
